Measured values from patent publication US9687479B2, “Multisubstituted aromatic compounds as serine protease inhibitors” (VERSEON CORPORATION, priority 2013, dated 2017).

These molecules were tested against Human thrombin (Homo sapiens (Human), UniProt P00734) (assay: Thrombin protease activity inhibition assay (chromogenic substrate S-2238)). Conditions: 3 nM thrombin, 125 μM S-2238, 10 min pre-incubation, RT.
Format: biochemical
In short: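 Thrombin at 3 nM final in 0.05 M Tris pH 7.4, 0.015 M NaCl, 0.01% PEG-8000, at room temperature; compounds as ten-point three-fold dilutions.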
`O=C(c1ccccc1Cl)n1nc(-c2cccn(Cc3ccccn3)c2=O)cc1NCc1ccc(Cl)s1` [Cmpd 246, 3-1-[(2-chlorophenyl)carbonyl]-5-[(5-chlorothiophen-2-yl)methyl]amino-1H-pyrazol-3-yl-1-(pyridin-2-ylmethyl)-1,2-dihydropyridin-2-one] was tested, and the IC50 was < 0.1 µM.
In the case of `O=C(c1ccccc1Cl)n1nc(-c2cccn(Cc3ncccn3)c2=O)cc1NCc1ccc(Cl)s1` [Cmpd 249, 3-1-[(2-chlorophenyl)carbonyl]-5-[(5-chlorothiophen-2-yl)methyl]amino-1H-pyrazol-3-yl-1-(pyrimidin-2-ylmethyl)-1,2-dihydropyridin-2-one], the IC50 is reported as < 0.1 µM.
In the case of `O=C(c1ccccc1Cl)n1nc(-c2cccn(Cc3cccs3)c2=O)cc1NCc1ccc(Cl)s1` [Cmpd 250, 3-1-[(2-chlorophenyl)carbonyl]-5-[(5-chlorothiophen-2-yl)methyl]amino-1H-pyrazol-3-yl-1-(thiophen-2-ylmethyl)-1,2-dihydropyridin-2-one], the IC50 is reported as < 0.1 µM.
With `O=C(c1ccccc1Cl)n1nc(-c2cccn(Cc3ccsc3)c2=O)cc1NCc1ccc(Cl)s1` [Cmpd 251, 3-1-[(2-chlorophenyl)carbonyl]-5-[(5-chlorothiophen-2-yl)methyl]amino-1H-pyrazol-3-yl-1-(thiophen-3-ylmethyl)-1,2-dihydropyridin-2-one] the IC50 was < 0.1 µM.
`O=C(c1ccccc1Cl)n1nc(-c2cccn(CCN3CCOCC3)c2=O)cc1NCc1ccc(Cl)s1` [Cmpd 252, 3-1-[(2-chlorophenyl)carbonyl]-5-[(5-chlorothiophen-2-yl)methyl]amino-1H-pyrazol-3-yl-1-[2-(morpholin-4-yl)ethyl]-1,2-dihydropyridin-2-one] was tested, and the IC50 was < 0.1 µM.
In the case of `CC(C)(C)c1ccc(C(=O)n2nc(-c3ccc[nH]c3=O)cc2NCc2ccc(Cl)s2)cc1` [Cmpd 253, 3-1-[(4-tert-butylphenyl)carbonyl]-5-[(5-chlorothiophen-2-yl)methyl]amino-1H-pyrazol-3-yl-1,2-dihydropyridin-2-one], the IC50 is reported as < 0.1 µM.
For `Cn1cccc(-c2cc(NCc3ccc(Cl)s3)n(C(=O)c3ccc(C(C)(C)C)cc3)n2)c1=O` [Cmpd 254, 3-1-[(4-tert-butylphenyl)carbonyl]-5-[(5-chlorothiophen-2-yl)methyl]amino-1H-pyrazol-3-yl-1-methyl-1,2-dihydropyridin-2-one], the IC50 was < 0.1 µM.
For `Nc1cc(-c2ccc[nH]c2=O)nn1C(=O)c1ccco1` [Cmpd 255, 3-5-amino-1-[(furan-2-yl)carbonyl]-1H-pyrazol-3-yl-1,2-dihydropyridin-2-one], the IC50 was 1 to 10 µM.
In the case of `Nc1cc(-c2cccn(Cc3ccccn3)c2=O)nn1C(=O)c1ccco1` [Cmpd 256, 3-5-amino-1-[(furan-2-yl)carbonyl]-1H-pyrazol-3-yl-1-(pyridin-2-ylmethyl)-1,2-dihydropyridin-2-one], the IC50 is reported as 1 to 10 µM.
For `CCOC(=O)Cn1cccc(-c2cc(NCc3ccc(Cl)s3)n(C(=O)C(C)(C)C)n2)c1=O` [Cmpd 257, ethyl 2-[3-(5-[(5-chlorothiophen-2-yl)methyl]amino-1-(2,2-dimethylpropanoyl)-1H-pyrazol-3-yl)-2-oxo-1,2-dihydropyridin-1-yl]acetate], the IC50 was < 0.1 µM.
For `CCOC(=O)Cn1cccc(-c2cc(NCc3ccc(Cl)s3)n(C(=O)c3ccccc3OC)n2)c1=O` [Cmpd 258, ethyl 2-[3-(5-[(5-chlorothiophen-2-yl)methyl]amino-1-[(2-methoxyphenyl)carbonyl]-1H-pyrazol-3-yl)-2-oxo-1,2-dihydropyridin-1-yl]acetate], the IC50 was < 0.1 µM.
In the case of `CCOC(=O)Cn1cccc(-c2cc(NCc3ccc(Cl)s3)n(C(=O)c3ccoc3)n2)c1=O` [Cmpd 259, ethyl 2-[3-(5-[(5-chlorothiophen-2-yl)methyl]amino-1-[(furan-3-yl)carbonyl]-1H-pyrazol-3-yl)-2-oxo-1,2-dihydropyridin-1-yl]acetate], the IC50 is reported as < 0.1 µM.
`CCOC(=O)Cn1cccc(-c2cc(NCc3ccc(Cl)s3)n[nH]2)c1=O` [Cmpd 260, ethyl 2-[3-(5-[(5-chlorothiophen-2-yl)methyl]amino-1H-pyrazol-3-yl)-2-oxo-1,2-dihydropyridin-1-yl]acetate] showed an IC50 of 10 to 100 µM.
`CC(C)(C)OC(=O)Cn1cccc(-c2cc(NCc3ccc(Cl)s3)n(C(=O)C(C)(C)C)n2)c1=O` [Cmpd 261, tert-butyl 2-[3-(5-[(5-chlorothiophen-2-yl)methyl]amino-1-(2,2-dimethylpropanoyl)-1H-pyrazol-3-yl)-2-oxo-1,2-dihydropyridin-1-yl]acetate] was tested, and the IC50 was < 0.1 µM.
In the case of `COc1ccccc1C(=O)n1nc(-c2cccn(CC(=O)OC(C)(C)C)c2=O)cc1NCc1ccc(Cl)s1` [Cmpd 262, tert-butyl 2-[3-(5-[(5-chlorothiophen-2-yl)methyl]amino-1-[(2-methoxyphenyl)carbonyl]-1H-pyrazol-3-yl)-2-oxo-1,2-dihydropyridin-1-yl]acetate], the IC50 is reported as < 0.1 µM.
`CC(C)(C)OC(=O)Cn1cccc(-c2cc(NCc3ccc(Cl)s3)n(C(=O)c3ccoc3)n2)c1=O` [Cmpd 263, tert-butyl 2-[3-(5-[(5-chlorothiophen-2-yl)methyl]amino-1-[(furan-3-yl)carbonyl]-1H-pyrazol-3-yl)-2-oxo-1,2-dihydropyridin-1-yl]acetate] was tested, and the IC50 was < 0.1 µM.
In the case of `CC(C)(C)OC(=O)Cn1cccc(-c2cc(NCc3ccc(Cl)s3)[nH]n2)c1=O` [Cmpd 264, tert-butyl 2-[3-(5-[(5-chlorothiophen-2-yl)methyl]amino-1H-pyrazol-3-yl)-2-oxo-1,2-dihydropyridin-1-yl]acetate], the IC50 is reported as > 100 µM.

What follows are molecules tested against Human KLKB1 (Homo sapiens (Human), UniProt P03952) (assay: KLKB1 kallikrein activity inhibition assay (chromogenic substrate S-2302)). Conditions: Table B.
Chain of Human KLKB1 (P03952 391-638 limits assumed): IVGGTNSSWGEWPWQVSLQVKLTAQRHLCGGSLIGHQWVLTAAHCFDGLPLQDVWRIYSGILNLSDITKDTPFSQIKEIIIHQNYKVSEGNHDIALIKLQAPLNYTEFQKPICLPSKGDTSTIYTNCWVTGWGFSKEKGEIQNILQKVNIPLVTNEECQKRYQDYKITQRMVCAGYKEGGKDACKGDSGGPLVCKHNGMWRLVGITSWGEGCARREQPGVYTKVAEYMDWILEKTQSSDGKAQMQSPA
Chain of Human KLKB1 (P03952 20-390 partner limits assumed): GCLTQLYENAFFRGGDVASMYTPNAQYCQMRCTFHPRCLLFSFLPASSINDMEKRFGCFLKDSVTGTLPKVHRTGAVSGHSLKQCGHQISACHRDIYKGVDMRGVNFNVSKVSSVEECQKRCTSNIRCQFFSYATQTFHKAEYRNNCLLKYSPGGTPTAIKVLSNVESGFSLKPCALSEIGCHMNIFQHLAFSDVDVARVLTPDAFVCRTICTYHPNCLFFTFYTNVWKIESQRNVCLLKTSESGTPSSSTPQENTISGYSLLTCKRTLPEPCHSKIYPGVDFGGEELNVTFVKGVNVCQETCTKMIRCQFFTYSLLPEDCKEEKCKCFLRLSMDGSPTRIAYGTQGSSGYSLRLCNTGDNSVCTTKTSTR
Format: biochemical
Method: The KLKB1 kallikrein activity reported herein (e.g., Tables B, C, and D) was obtained as follows. Human KLKB1 protein was obtained from Enzyme Research Labs. […] KLKB1 was assayed in buffer containing 0.05 M Tris (pH 7.4), 0.01 M NaCl and 0.2% w/v PEG-8000. The final concentration of enzyme used was 3 nM KLKB1. […] All assays were performed in 96-well microtiter plates at room temperature (RT). […] Inhibitor IC50 values were determined by adding test compound as ten point, three-fold serial dilutions in buffer solution, as known in the art. The plate was read at 10 minutes after substrate addition. The IC50 was calculated by plotting the percent (%) inhibition against compound concentration and fitting the data to a constrained four parameter sigmoidal curve, as known in the art.
With `CCC(=O)n1nc(-c2ccccc2)cc1NCc1ccc(F)cc1` [Cmpd 268] the IC50 was > 100 µM.
`CC(C)(C)C(=O)n1nc(-c2ncccc2F)cc1NCc1ccc(Cl)s1` [Cmpd 269] was tested, and the IC50 was > 100 µM.
For `CC(C)(C)C(=O)n1nc(-c2ccco2)cc1NCc1ccc(Cl)s1` [Cmpd 270], the IC50 was > 100 µM.
For `CC(C)(CO)C(=O)n1nc(C2CCOCC2)c(F)c1NCc1ccc(Cl)s1` [Cmpd 273], the IC50 was 10 to 100 µM.
`CC(C)(CO)C(=O)n1nc(C2CCNCC2)c(F)c1NCc1ccc(Cl)s1` [Cmpd 274] gave an IC50 of 1 to 10 µM.
`CC(C)(CO)C(=O)n1nc(-c2ccccc2)c(F)c1NCc1ccc(Cl)s1` [Cmpd 275] was tested, and the IC50 was > 100 µM.
`COc1ccccc1C(=O)n1nc(-c2ccccn2)cc1NCc1cccs1` [Cmpd 278] was tested, and the IC50 was > 100 µM.
In the case of `CC(C)(C)C(=O)n1nc(-c2ccccn2)c(F)c1NCc1ccccc1` [Cmpd 279], the IC50 is reported as > 100 µM.
With `CC(C)(C)C(=O)n1nc(-c2ccccn2)cc1NCc1ccco1` [Cmpd 280, 1-5-[(furan-2-ylmethyl)amino]-3-(pyridin-2-yl)-1H-pyrazol-1-yl-2,2-dimethylpropan-1-one] the IC50 was > 100 µM.
`COc1ccccc1C(=O)n1nc(-c2ccccn2)cc1NCc1ccco1` [Cmpd 283] was tested, and the IC50 was > 100 µM.
For `COc1ccccc1C(=O)n1nc(C2CCOCC2)cc1NCc1ccc(Cl)s1` [Cmpd 284], the IC50 was > 100 µM.
`O=C(c1ccoc1)n1nc(-c2ccccn2)cc1NCc1ccc(Cl)s1` [Cmpd 288] gave an IC50 of 10 to 100 µM.
With `O=C(c1ccoc1)n1nc(-c2cccs2)cc1NCc1ccc(Cl)s1` [Cmpd 289] the IC50 was > 100 µM.
`COc1ccccc1C(=O)n1nc(-c2ncccc2F)cc1NCc1ccc(Cl)s1` [Cmpd 290] was tested, and the IC50 was > 100 µM.
`O=C(c1ccoc1)n1nc(-c2ncccc2F)cc1NCc1ccc(Cl)s1` [Cmpd 291] was tested, and the IC50 was > 100 µM.
For `O=C(c1ccoc1)n1nc(-c2ccccc2)c(F)c1NCc1ccc(Cl)s1` [Cmpd 295], the IC50 was > 100 µM.
In the case of `COc1ccccc1C(=O)n1nc(-c2ccccc2)c(F)c1NCc1ccccc1` [Cmpd 296], the IC50 is reported as > 100 µM.
With `CC(C)(C)OC(=O)N1CCC(c2cc(NCc3ccc(Cl)s3)n(C(=O)C(C)(C)C)n2)CC1` [Cmpd 297] the IC50 was > 100 µM.
With `CC(C)(C)OC(=O)N1CCC(c2cc(NCc3ccc(Cl)s3)n(C(=O)c3ccsc3)n2)CC1` [Cmpd 298] the IC50 was > 100 µM.

Same assay, conditions: Table C
For `CCC(=O)n1nc(-c2cccnc2)nc1NCc1ccc(F)cc1` [Cmpd 7], the IC50 was 10 to 100 µM.
`O=C(c1ccco1)n1nc(-c2ccccn2)nc1NCc1ccccc1` [Cmpd 8] was tested, and the IC50 was 1 to 10 µM.
Molecule `O=C(c1cccs1)n1nc(-c2ccccn2)nc1NCc1ccc(F)cc1` [Cmpd 10] has an IC50 of 1 to 10 µM.
Molecule `O=C(c1ccsc1)n1nc(-c2ccncc2)nc1NCc1ccc(F)cc1` [Cmpd 11] has an IC50 of 1 to 10 µM.
With `COc1ccccc1C(=O)n1nc(-c2cccnc2)nc1SCc1ccc(F)cc1` [Cmpd 14] the IC50 was 0.1 to 1 µM.
`COc1ccccc1C(=O)n1nc(-c2ccncn2)nc1NCc1ccccc1` [Cmpd 16] showed an IC50 of 0.1 to 1 µM.
For `COc1ccccc1C(=O)n1nc(-c2cncnc2)nc1NCc1ccccc1` [Cmpd 17], the IC50 was 0.1 to 1 µM.
In the case of `Fc1ccc(CNc2nc(-c3ccccn3)nn2-c2nc3ccccc3s2)cc1` [Cmpd 299], the IC50 is reported as > 100 µM.
`CC(C)(C)C(=O)n1nc(-c2ccco2)nc1NCc1ccc(F)cc1` [Cmpd 300] gave an IC50 of 10 to 100 µM.
Work on `CC(C)(C)C(=O)n1nc(-c2ccccn2)nc1NCc1ccc(F)cc1` [Cmpd 301] yielded an IC50 of 10 to 100 µM.
With `CC(C)C(=O)n1nc(-c2ccccn2)nc1NCc1ccc(F)cc1` [Cmpd 302] the IC50 was 10 to 100 µM.
`O=C(Cc1ccccc1)n1nc(-c2ccccn2)nc1NCc1ccc(F)cc1` [Cmpd 303] gave an IC50 of 1 to 10 µM.
For `CC(C)CC(=O)n1nc(-c2ccccn2)nc1NCc1ccc(F)cc1` [Cmpd 304], the IC50 was 10 to 100 µM.
Work on `O=C(CCc1ccccc1)n1nc(-c2ccccn2)nc1NCc1ccc(F)cc1` [Cmpd 305] yielded an IC50 of 10 to 100 µM.
With `CCCC(=O)n1nc(-c2ccccn2)nc1NCc1ccc(F)cc1` [Cmpd 306] the IC50 was 10 to 100 µM.
`CCC(=O)n1nc(-c2ccccn2)nc1NCc1ccc(F)cc1` [Cmpd 307] showed an IC50 of 10 to 100 µM.
In the case of `CC(C)(C)C(=O)n1nc(-c2cccnc2)nc1NCc1ccc(F)cc1` [Cmpd 308], the IC50 is reported as 10 to 100 µM.
For `COCC(=O)n1nc(-c2cccnc2)nc1NCc1ccc(F)cc1` [Cmpd 309], the IC50 was > 100 µM.
